Experimental data taken from PubChem BioAssay AID248 (DTP/NCI, 2004).
“And” between values parts separate entries of the source, which are not always exact repeats. Equal values may be shown once. Inconclusive results and toxic doses are left out. Cut-off read from the data, not from the text of the source: active = T/C of 150% or more; inactive = T/C below 125%. Square brackets hold non-standard residues; d marks the D form. Peptide text beside a SMILES is read from it. * marks the point of attachment. ξ: configuration not given here. ξE = NC(CCC(=O)O)C(=O)O; Cbz = O=C(OCc1ccccc1)*

Test system: L1210 leukemia ip in BDF1 mice, survival T/C
Assay: NCI In Vivo Anticancer Drug Screen. Data for tumor model L1210 Leukemia (intraperitoneal) in B6D2F1 (BDF1) mice
Details: endpoint: mean survival time, higher = longer survival
How it was run: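 Each compound was tested against a transplantable tumor grown in mice. The endpoint was survival, with treated animals benchmarked against vehicle controls as a simple ratio.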

[1] = dose: 100.0 mg/kg/injection, schedule: Q04DX003 (ip), vehicle: Klucel (hydroxypropylcellulose) (HPC)
[2] = dose: 200.0 mg/kg/injection, schedule: Q04DX003 (ip), vehicle: Klucel (hydroxypropylcellulose) (HPC)
[3] = dose: 400.0 mg/kg/injection, schedule: Q04DX003 (ip), vehicle: Klucel (hydroxypropylcellulose) (HPC)
[4] = dose: 50.0 mg/kg/injection, schedule: Q01DX009 (ip), vehicle: Klucel (hydroxypropylcellulose) (HPC)
[5] = dose: 50.0 mg/kg/injection, schedule: Q04DX003 (ip), vehicle: Klucel (hydroxypropylcellulose) (HPC)
[6] = dose: 100.0 mg/kg/injection, schedule: Q01DX009 (ip), vehicle: Klucel (hydroxypropylcellulose) (HPC)
[7] = dose: 200.0 mg/kg/injection, schedule: Q01DX009 (ip), vehicle: Klucel (hydroxypropylcellulose) (HPC)
[8] = dose: 400.0 mg/kg/injection, schedule: Q01DX009 (ip), vehicle: Klucel (hydroxypropylcellulose) (HPC)
[9] = dose: 100.0 mg/kg/injection, schedule: Q04DX002 (ip), vehicle: Klucel (hydroxypropylcellulose) (HPC)
[10] = dose: 50.0 mg/kg/injection, schedule: Q01DX001 (ip), vehicle: Klucel (hydroxypropylcellulose) (HPC)
[11] = dose: 100.0 mg/kg/injection, schedule: Q01DX001 (ip), vehicle: Klucel (hydroxypropylcellulose) (HPC)
[12] = dose: 200.0 mg/kg/injection, schedule: Q01DX001 (ip), vehicle: Klucel (hydroxypropylcellulose) (HPC)
[13] = dose: 400.0 mg/kg/injection, schedule: Q01DX001 (ip), vehicle: Klucel (hydroxypropylcellulose) (HPC)

Measured: T/C

CCOc1cccc(Cc2c[nH]c(=O)n(C)c2=O)c1
inactive: [1] 93 % of control | [2] 97 % of control | [3] 98 % of control

O=C(O)CCC(NC(=O)CNC(=O)OCc1ccccc1)C(=O)O (stereo not drawn) (Cbz-Gly-[ξE]-OH)
inactive: [4] 95 % of control | [5] 92 % of control | [6] 97 % of control | [1] 96 % of control | [7] 93 % of control | [2] 93 % of control

C#CCCOC(=O)Nc1ccccc1
inactive: [6] 96 % of control | [7] 96 % of control | [8] 102 % of control

Cc1cc(C)c(CSC(=N)N)c(C)c1
inactive: dose: 25.0 mg/kg/injection, schedule: Q04DX002 (ip), vehicle: Klucel (hydroxypropylcellulose) (HPC) 88 % of control | dose: 50.0 mg/kg/injection, schedule: Q04DX002 (ip), vehicle: Klucel (hydroxypropylcellulose) (HPC) 92 % of control | [9] 100 % of control and 89 % of control

COC1OC(CN(CCOS(C)(=O)=O)CCOS(C)(=O)=O)C2OC(C)(C)OC12 (configuration not stated)
inactive: [10] 114 % of control | [11] 108 % of control | [12] 107 % of control | [13] 105 % of control

O=C(CC(O)(C(F)(F)F)C(F)(F)F)c1ccc(Br)cc1
inactive: dose: 100.0 mg/kg/injection, schedule: Q04DX003 (ip), vehicle: other 98 % of control | dose: 200.0 mg/kg/injection, schedule: Q04DX003 (ip), vehicle: other 106 % of control | dose: 400.0 mg/kg/injection, schedule: Q04DX003 (ip), vehicle: other 93 % of control

N/C(=N\[N+](=O)[O-])Nc1nc2ccccc2s1
inactive: [9] 113 % of control

CS(=O)(=O)OCCN(CCOS(C)(=O)=O)c1ccc(C(=O)O)cc1
inactive: dose: 42.0 mg/kg/injection, schedule: Q01DX015 (ip), vehicle: other 108 % of control | dose: 50.0 mg/kg/injection, schedule: Q01DX001 (ip), vehicle: other 115 % of control | dose: 66.0 mg/kg/injection, schedule: Q01DX015 (ip), vehicle: saline 120 % of control | dose: 72.0 mg/kg/injection, schedule: Q01DX015 (ip), vehicle: other 121 % of control | dose: 100.0 mg/kg/injection, schedule: Q01DX001 (ip), vehicle: other 115 % of control | dose: 100.0 mg/kg/injection, schedule: Q01DX015 (ip), vehicle: saline 122 % of control | dose: 120.0 mg/kg/injection, schedule: Q01DX015 (ip), vehicle: other 116 % of control | dose: 150.0 mg/kg/injection, schedule: Q01DX015 (ip), vehicle: saline 117 % of control | dose: 177.0 mg/kg/injection, schedule: Q01DX001 (ip), vehicle: other 118 % of control | dose: 177.0 mg/kg/injection, schedule: Q01DX001 (ip), vehicle: saline 117 % of control | dose: 177.0 mg/kg/injection, schedule: Q01DX015 (ip), vehicle: other 93 % of control | dose: 220.0 mg/kg/injection, schedule: Q01DX015 (ip), vehicle: saline 86 % of control | dose: 267.0 mg/kg/injection, schedule: Q01DX001 (ip), vehicle: other 118 % of control | dose: 267.0 mg/kg/injection, schedule: Q01DX001 (ip), vehicle: saline 110 % of control

CC(=O)Nc1ccccc1C(=O)C(N)=O
inactive: [4] 100 % of control | [6] 94 % of control | [1] 96 % of control | [7] 96 % of control | [2] 95 % of control | [3] 98 % of control

CCOC(=O)c1cnc(SC)nc1Nc1ccc(Br)cc1
inactive: [4] 93 % of control | [6] 92 % of control | [1] 124 % of control | [7] 88 % of control | [2] 124 % of control | [3] 87 % of control

O=c1oc2ccc(Cl)cc2n1CN1CCOCC1
inactive: dose: 100.0 mg/kg/injection, schedule: Q01DX001 (ip), vehicle: carboxymethylcellulose (CMC) 96 % of control | dose: 200.0 mg/kg/injection, schedule: Q01DX001 (ip), vehicle: carboxymethylcellulose (CMC) 96 % of control | dose: 400.0 mg/kg/injection, schedule: Q01DX001 (ip), vehicle: carboxymethylcellulose (CMC) 88 % of control

NC(=S)c1ccc2ccc3cccnc3c2n1
inactive: dose: 50.0 mg/kg/injection, schedule: Q04DX003 (ip), vehicle: saline with Tween-80 95 % of control | dose: 100.0 mg/kg/injection, schedule: Q04DX003 (ip), vehicle: saline with Tween-80 104 % of control | dose: 200.0 mg/kg/injection, schedule: Q04DX003 (ip), vehicle: saline with Tween-80 106 % of control

COc1ccccc1C1CC(C(C)(C)C)CCC1OS(=O)(=O)c1ccc(C)cc1 (configuration not stated)
inactive: dose: 50.0 mg/kg/injection, schedule: Q01DX009 (ip), vehicle: saline 90 % of control | dose: 100.0 mg/kg/injection, schedule: Q01DX009 (ip), vehicle: saline 92 % of control | dose: 100.0 mg/kg/injection, schedule: Q04DX003 (ip), vehicle: acetone 102 % of control | dose: 200.0 mg/kg/injection, schedule: Q01DX009 (ip), vehicle: saline 95 % of control | dose: 200.0 mg/kg/injection, schedule: Q04DX003 (ip), vehicle: acetone 96 % of control | dose: 400.0 mg/kg/injection, schedule: Q04DX003 (ip), vehicle: acetone 94 % of control

CCNc1nc(Cl)nc(N(CC)CC)n1
inactive: dose: 100.0 mg/kg/injection, schedule: Q01DX009 (ip), vehicle: saline with Tween-80 91 % of control | dose: 200.0 mg/kg/injection, schedule: Q01DX009 (ip), vehicle: saline with Tween-80 98 % of control | dose: 400.0 mg/kg/injection, schedule: Q01DX009 (ip), vehicle: saline with Tween-80 89 % of control

CC(C)NC(=O)CN=NNc1nc[nH]c1C(N)=O
inactive: dose: 25.0 mg/kg/injection, schedule: Q01DX001 (ip), vehicle: Klucel (hydroxypropylcellulose) (HPC) 95 % of control | dose: 25.0 mg/kg/injection, schedule: Q04DX003 (ip), vehicle: Klucel (hydroxypropylcellulose) (HPC) 99 % of control | [10] 100 % of control | [5] 94 % of control | [11] 97 % of control | [1] 101 % of control

Clc1nc(Nc2ccccc2)nc(Nc2ccccc2)n1
inactive: [1] 96 % of control | [2] 93 % of control | [3] 95 % of control

CC12CCC(=O)C=C1CCC1C2CCC2(C)C(C(=O)COC(=O)Cc3ccc(N(CCCl)CCCl)cc3)CCC12 (configuration not stated)
inactive: dose: 100.0 mg/kg/injection, schedule: Q01DX001 (sc), vehicle: steriod suspending solution 99 % of control | dose: 200.0 mg/kg/injection, schedule: Q01DX001 (sc), vehicle: steriod suspending solution 101 % of control | dose: 400.0 mg/kg/injection, schedule: Q01DX001 (sc), vehicle: steriod suspending solution 100 % of control | [8] 90 % of control

S=C([S][Sn]([S]C(=S)N(c1ccccc1)c1ccccc1)([c]1ccccc1)[c]1ccccc1)N(c1ccccc1)c1ccccc1
inactive: dose: 100.0 mg/kg/injection, schedule: Q01DX001 (ip), vehicle: steriod suspending solution 93 % of control | dose: 200.0 mg/kg/injection, schedule: Q01DX001 (ip), vehicle: steriod suspending solution 112 % of control

O=P(O)(CP(=O)(c1ccccc1)c1ccccc1)c1ccccc1
inactive: [9] 94 % of control | dose: 200.0 mg/kg/injection, schedule: Q04DX002 (ip), vehicle: Klucel (hydroxypropylcellulose) (HPC) 94 % of control

Cc1cc(C2C(O)C(c3cc(C)on3)C2(C)O)no1 (configuration not stated)
inactive: [11] 98 % of control | [1] 103 % of control | [12] 98 % of control | [2] 97 % of control | [13] 97 % of control | [3] 103 % of control
